Measured values as given in US8969333B2, “Therapeutic compositions and methods” (The Penn State Research Foundation, priority 2010, dated 2015).
pIC50: −log10 of the molar value. Like-named read-outs stand apart in the source and are kept apart here.

How the values were obtained:
[1] = tested on: U2OS human osteosarcoma cells; assay: MTT assay of U2OS cancer cell growth inhibition; assay type: cell-based; details: for pIC50: read-out: 50% inhibition Cell growth, U2OS cells, MTT, 72 hr; for U2OS cell growth in MTT assay: 20 μM, 3 days
Procedure: MIT assays are conducted to evaluate activity to inhibit cancer cell growth. U2OS human osteosarcoma cells were treated with individual compounds at different concentrations for 72 hr in 24-well plates. MIT reagent was added to a final concentration of 0.5 mg/ml and further incubated for 4 hr. The yellow-colored MTT was reduced to insoluble purple-colored Formazan in living cells. Culture medium was removed and DMSO was added to dissolve Formazan into solution. The absorbance of the solution was then measured at 570 nm using a Thermo BioMate™ 3 spectrophotometer. Results are shown in FIG. 1 and average and standard deviations are shown (n>=3).
Cells were treated with individual compounds at different concentrations for 72 hr in 24-well plates. MTT reagent was added to a final concentration of 0.5 mg/ml and further incubated for 4 hr. The yellow-colored MTT was reduced to insoluble purple-colored Formazan in living cells. Culture medium was removed and DMSO was added to dissolve Formazan into solution. The absorbance of the solution was then measured at 570 nm using a Thermo BioMate™ 3 spectrophotometer.

p53 and its target genes = assay: RT-qPCR and Western blot of p53 and its target genes in U2OS cells; assay type: cell-based, human; details: U2OS cells
Procedure: Western blot and immunostaining was performed essentially as described in Li, P. et al., Oncogene 29 (21), 3153-3162 (2010). Antibodies used in Western blot were anti-p53 (Sigma), anti-PAD4, anti-p21 (Sigma), anti-PUMA (Calbiochem), anti-SESN2 (Abeam), anti-p70S6K (Cell Signaling), anti-p70S6K-pT389 (Cell Signaling), anti-LC3 (Cell Signaling) and anti-β-actin (Sigma) at appropriate dilutions. Anti-LC3B antibody (Cell Signaling) was used for immunostaining. DNA was stained by the DNA dye Hoechst.
RNA was extracted using RNeasy Mini Kit (Qiagen) per manufacturer's instructions. 1 μg RNA was reverse transcribed into cDNA using qScript cDNA SuperMix (Quanta Biosciences) per manufacturer's instructions. Quantitative PCR was performed using SYBR Green SuperMix (Quanta Biosciences) in StepOnePlus Real-Time PCR System (Applied Biosystems). FIG. 10 is a graph showing p53 and its target gene expression induced in S180 cells by YW3-56 in a concentration dependent manner.
U2OS and S-180 cells were cultured in Dulbecco modified Eagle medium (DMEM) supplemented with 10% fetal bovine serum and 1% penicillin-streptomycin in a 5% CO2 incubator. U2OS p53-shRNA and U2OS Ctrl-shRNA cells were generated as described in Li, P. et al., Regulation of p53 target gene expression by peptidylarginine deiminase 4. Mol Cell Bial 28 (15), 4745-4758 (2008). Concentrations and duration of YW3-56 treatment were performed as specified in the figures and text. For starvation assay, U2OS cells were first cultured in serum-free DMEM for 16 hr, 10% fetal bovine serum and different concentrations of YW3-56 was then added back and cells were further incubated for 8 hr before further analyses. SESN2 siRNA (Santa Cruz) and GFP siRNA (Dharmacon Inc.) were transfected into U2OS cells using the XtremeGene siRNA transfection reagents (Roche Inc.). Cells were incubated in the presence of the siRNA for 48 hr before adding YW3-56 and further incubated for 8 hr before analyses.
The relative abundance of each gene is compared with β-actin as a reference. Increase in several p53 target genes, such as p21, GADD45, PUMA, OKL38, DRAM, and Sestrin2, is detected after YW3-88 treatment at 12 μM concentration. […] Increase in p21 and PUMA proteins is detected.

PAD4 = PAD4 (Homo sapiens (Human), UniProt Q9UM07); assay: PAD4 enzyme activity colorimetric assay (citrullination of BAEE); assay type: biochemical; details: 0.2 μg PAD4, 5 mM BAEE, 37° C.
Procedure: PAD4 enzyme activity assays are conducted to determine PAD4 inhibitory activity. PAD4 inhibition efficacy of the inhibitors is determined using a colorimetric assay for citrullination production.
The inhibition efficacy of PAD4 inhibitors were determined by colorimetric measurement of citrulline generated by PAD4 catalyzed citrullination of BAEE. 0.2 μg PAD4 was pre-incubated with inhibitors in 100 μl buffer containing 50 mM Tris-HCl pH7.6, 5 mM CaCl2, 2 mM DTT for 0.5 hr at 37° C. The reaction was started by the addition of BAEE to 5 mM and halted 1.5 hr later with the addition of 25 μl 5 M HClO4. Then the samples were briefly centrifuged at 12000 rpm for 2 min at 4° C. and the supernatant (120 μl) were assayed for citrulline by mixing with 120 μl reagent A (0.5% w/v diacetyl monoxime and 15% w/v NaCl in water) and 240 μl reagent B (1% w/v antipyrine, 0.15% w/v ferric chloride, 25% v/v H2SO4 and 25% v/v H3PO4). The mixtures were boiled for 15 min and cooled to room temperature in ice bath. The absorbance of the reagent mixtures at 464 nm was measured by Thermo BioMate™ 3 spectrophotometer. Efficacies of inhibitors are indicated as relative PAD4 citrullination activity by normalizing the PAD4 activity without inhibitor treatment to 100%.

[2] = Body and vital organ weight after 1 week of treatment; assay type: in vivo, mouse
Procedure: S180 ascites tumor cells were used to form solid tumors after subcutaneous injection essentially as described in Wang, W. et al., Mol. Biosyst., 2011, 7:766-772. In brief, for initiation of subcutaneous tumors, the cells were obtained as an ascitic form from the tumor-bearing mice, which were serially transplanted once per week. Subcutaneous tumors were implanted by injecting 0.2 ml of 0.9% saline containing 1×10^7 viable tumor cells under the skin on the right armpit. 24 hr after implantation, male ICR mice were randomly divided into experimental groups. The mice in the positive control group were given a daily i.p injection of 2 mg/kg of doxorubicin in 0.2 ml of 0.9% saline for 7 consecutive days. The mice in the negative control group were given a daily i.p injection of 0.2 ml of 0.9% saline for 7 consecutive days. […] The weights of the mice were recorded every day. […]
FIG. 13A-13F show weight of whole body, FIG. 13A; brain, FIG. 13B; heart, FIG. 13C; liver, FIG. 13D; kidney, FIG. 13E; and spleen, FIG. 13F measured in mice after 1 week of treatment with daily intraperitoneal injection of control PBS, YW3-56 at 10 mg/kg body weight, SAHA at 5 mg/kg body weight, a mixture of YW3-56 at 5 mg/kg body weight and SAHA at 2.5 mg/kg body weight, or doxorubicin at 2 mg/kg body weight. * in (f) denotes a loss of spleen weight after doxorubicin treatment.

[3] = tested on: PAD4+/+ mouse neutrophils; assay: Histone citrullination, enlarged nucleus and NET formation in PAD4+/+ neutrophils; assay type: cell-based; details: for NET formation, percentage of neutrophils / Histone citrullination, percentage of positive neutrophils / Enlarged nucleus, percentage of neutrophils: PAD4+/+; for NET formation, percentage of neutrophils / Enlarged nucleus, percentage of neutrophils: Cl-amidine 200 μM 30 min prior to LPS; for Histone citrullination, percentage of positive neutrophils: Cl-amidine 200 μM 30 min prior to LPS for 3 hr; for Enlarged nucleus, percentage of neutrophils: nuclear diameter over 1.5 fold larger
Procedure: (§1) NET formation is induced after lipopolysaccharides (LPS) and phorbol myristate acetate (PMA) treatment in human neutrophils (Brinkmann et al., 2004). To test whether PAD4 is important for chromatin decondensation and NET formation upon LPS treatment, immunostaining experiments are performed. Before LPS treatment, ˜3.69% of PAD4^+/+ neutrophils are positively stained for histone H3 citrullination but NET formation is not detected, while histone H3 citrullination or NET formation is not observed in PAD4^−/− neutrophils. After LPS treatment, an increase in histone H3 citrullination is detected in PAD4^+/+ but not in PAD4^−/− neutrophils by Western blotting or immunostaining analyses. […] The decondensed chromatin induced by LPS is positively stained by histone H3 citrullination and neutrophil elastase antibodies, indicating these structures are indeed NETs. […] Furthermore, chromatin decondensation and histone citrullination are detected in PAD4^+/+ but not in PAD4^−/− neutrophils after PMA treatment.
(§2) Table II illustrates the efficacy of LPS, PMA, and H2O2 in inducing chromatin structure changes in PAD4^+/+ and PAD4^−/− neutrophils. […] PAD4 is required for NET formation after stimulation of neutrophils.

[4] = tested on: PAD4-/- mouse neutrophils; assay: Histone citrullination, enlarged nucleus and NET formation in PAD4-/- neutrophils; assay type: cell-based; details: U.D. = undetectable
Procedure: as §1, §2

S180 tumor = assay: Sarcoma S180 cell-derived mouse tumor model; assay type: in vivo; details: SAHA 5 mg/kg daily for 1 week
Source text: A well-established sarcoma S180 cell-derived mouse tumor model is used in this example to determine the effects of PAD4 inhibitors of the present invention on tumor growth in mice.
S180 ascites tumor cells were used to form solid tumors after subcutaneous injection essentially as described in Wang, W. et al., Mol. Biosyst., 2011, 7:766-772. In brief, for initiation of subcutaneous tumors, the cells were obtained as an ascitic form from the tumor-bearing mice, which were serially transplanted once per week. Subcutaneous tumors were implanted by injecting 0.2 ml of 0.9% saline containing 1×10^7 viable tumor cells under the skin on the right armpit. 24 hr after implantation, male ICR mice were randomly divided into experimental groups. The mice in the positive control group were given a daily i.p injection of 2 mg/kg of doxorubicin in 0.2 ml of 0.9% saline for 7 consecutive days. The mice in the negative control group were given a daily i.p injection of 0.2 ml of 0.9% saline for 7 consecutive days. The mice in the treatment groups were given a daily i.p injection of YW3-56 (10 mg/kg), SAHA (5 mg/kg), or a combination of YW3-56 (5 mg/kg) and SAHA (2.5 mg/kg) for 7 consecutive days. The weights of the mice were recorded every day. 24 hr after the last administration, all mice were weighed, euthanized and immediately dissected to obtain and weigh the tumor and vital organs.

[5] = tested on: human HL-60 granulocytic cells; details: HL-60 granulocytic cells (Wang et al., 2009); cited from earlier work
[6] = read-out: 50% inhibition PAD4 activity

Sequence of PAD4 (Q9UM07 whole entry, species assumed): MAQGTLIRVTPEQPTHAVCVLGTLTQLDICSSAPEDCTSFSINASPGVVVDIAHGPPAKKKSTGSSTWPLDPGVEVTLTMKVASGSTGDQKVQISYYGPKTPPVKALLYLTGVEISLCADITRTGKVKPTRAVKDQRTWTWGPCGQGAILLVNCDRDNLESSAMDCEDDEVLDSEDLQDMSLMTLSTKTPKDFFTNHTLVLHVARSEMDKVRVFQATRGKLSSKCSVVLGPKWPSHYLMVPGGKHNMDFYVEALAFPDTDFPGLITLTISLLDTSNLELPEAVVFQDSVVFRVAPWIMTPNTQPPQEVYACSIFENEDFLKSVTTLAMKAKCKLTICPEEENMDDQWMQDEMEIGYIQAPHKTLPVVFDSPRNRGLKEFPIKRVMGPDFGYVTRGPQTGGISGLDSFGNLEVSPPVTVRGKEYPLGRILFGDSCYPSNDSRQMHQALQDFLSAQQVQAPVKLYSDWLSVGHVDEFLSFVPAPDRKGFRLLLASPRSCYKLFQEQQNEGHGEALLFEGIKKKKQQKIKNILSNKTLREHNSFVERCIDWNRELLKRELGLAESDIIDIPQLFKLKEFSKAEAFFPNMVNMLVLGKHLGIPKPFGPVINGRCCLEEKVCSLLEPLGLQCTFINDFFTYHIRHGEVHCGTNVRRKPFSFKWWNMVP

Row | Compound | pIC50 ([1]; Homo sapiens) | pIC50 (PAD4; [6]) | NET formation, percentage of neutrophils [3] [%^5] | Histone citrullination, percentage of positive neutrophils [3] [%^5] | Enlarged nucleus, percentage of neutrophils [3] [%^5] | Enlarged nucleus, percentage of neutrophils [4] | Histone citrullination, percentage of positive neutrophils [4] | NET formation, percentage of neutrophils [4] | further results
1 | N=C(CCl)NCCC[C@H](NC(=O)c1ccccc1)C(=O)NCc1ccccc1 [BL1-07] | 4.70 to 5.00 | < 4.70 | – | – | – | – | – | – | induction of p53 and its target genes (p53 and its target genes; even at higher concentrations): less potent
2 | COc1cccc2c1C(=O)c1c(O)c3c(c(O)c1C2=O)C[C@@](O)(C(=O)CO)C[C@@H]3O[C@H]1C[C@H](N)[C@H](O)[C@H](C)O1 [doxorubicin] | – | – | – | – | – | – | – | – | size of spleen relative to control mice ([2]; doxorubicin 2 mg/kg i.p. daily for 1 week): ~50%
3 | N=C(CCl)NCCC[C@H](NC(=O)c1cccc(-c2ccccc2)c1)C(=O)NCc1ccccc1 [YW4-03] | 5.30 to 5.60 | ~5.30 | – | – | – | – | – | – | U2OS cell growth in MTT assay [1]: abolished cell growth
4 | OO [Structure H2O2, H2O2] | – | – | 3 ± 0.3 | 48.3 ± 5.4 | 13.4 ± 1.4 | U.D. | U.D. | U.D. | –
5 | O=C(CCCCCCC(=O)Nc1ccccc1)NO [SAHA, suberoylanilide hydroxamic acid, reference compound] | – | – | – | – | – | – | – | – | growth of S180 tumor relative to control group (S180 tumor): ~44.6%; mouse growth and vital organ size ([2]; daily i.p. injection for 1 week): Neither SAHA alone nor mixtures of YW3-56 and SAHA impair
6 | CN(C)c1ccc2cc(C(=O)N[C@@H](CCCNC(=N)CCl)C(=O)NCc3ccc(NC(=O)CCCNC(=O)CCCCC4SCC5NC(=O)NC54)cc3)ccc2c1 (some centres unmarked) [YW4-15] | 4.30 to 4.70 | – | – | – | – | – | – | – | pIC50 (PAD4): 5.30 to 6.00
7 | N=C(CCl)NCCC[C@H](NC(=O)c1ccc(-c2ccccc2)cc1)C(=O)NCc1ccccc1 [YW3-88] | ~5.00 | < 4.70 | – | – | – | – | – | – | U2OS cell growth in MTT assay [1]: abolished cell growth; p21 and PUMA proteins by Western blot (p53 and its target genes): Increase; p53 target gene mRNA (p21, GADD45, PUMA, OKL38, DRAM, Sestrin2) (p53 and its target genes; 12 μM): Increase
8 | CCCCCCCCCCCCCC(=O)O[C@@H]1[C@@H](C)[C@@]2(O)[C@@H](C=C(CO)C[C@]3(O)C(=O)C(C)=C[C@@H]23)[C@@H]2C(C)(C)[C@]12OC(C)=O [PMA, phorbol myristate acetate] | – | – | 2.7 ± 0.5 | 48.5 ± 3 | 10.9 ± 0.3 | U.D. | U.D. | U.D. | –
9 | NC(=O)[C@H](CCCN=C(N)CCl)NC(=O)c1ccccc1 [Cl-amidine] | – | – | 0.32 ± 0.3 | 8.1 ± 1.3 | 1.2 ± 0.2 | U.D. | U.D. | U.D. | formation of NET-like structure [5]: represses the formation of NET-like structure; pIC50 [1]: 3.70 to 3.82; histone H3 citrullination and chromatin decondensation induced by LPS ([3]; pretreatment of PAD4+/+ mouse neutrophils): significantly decreases
10 | lipopolysaccharides [LPS] | – | – | 9.5 ± 0.5 | 42.3 ± 3.9 | 23.4 ± 2.7 | U.D. | U.D. | U.D. | nuclear area increase in size (swelling nuclei) ([3]; PAD4+/+ neutrophils after LPS treatment, NIH image J): ~3.5 fold
